Experimental data taken from US8343475B2, “Small cationic antimicrobial peptides” (priority 2006, dated 2013).
≈ marks a conversion by molar mass, not a printed value. Residues, ends and D or L forms follow the SMILES beside them. No end group written: not given here.

Columns and labels:
[1] = test system: LPS-stimulated TNFα production in THP-1 cells; experiment: Suppression of P. aeruginosa LPS-stimulated TNFα production (ELISA); assay type: cell-based, human; details: for ability to inhibit TNFα responses compared with indolicidin: 10 ng/ml P. aeruginosa LPS, peptides at 10, 20 and 50 μg/ml (FIG. 13)
Protocol: FIG. 12. Assessment of the ability of peptides to suppress P. aeruginosa LPS (10 ng/ml)-stimulated TNFα production in THP1 cells. Presented results are the mean values for 4 wells performed on 2 separate occasions. The x-axis number labeling is the amount of each peptide in μg/ml for the corresponding peptides.
FIG. 13. Suppression of inflammatory responses by peptides. Monocyte/macrophage-like adherent THP-1 cells were stimulated with 10 ng/ml P. aeruginosa LPS and the resulting TNFα response measured. Peptides were added at 10, 20 and 50 μg/ml. The observed TNF-release was measured by ELISA and related to the 100% value of the untreated (without peptide) cells.
Cytotoxicity and TNFα suppression assay. THP1 cells were cultured in RPMI 1640 medium (supplemented with 10% (v/v) FCS, 1% L-glutamine, and […] sodium pyruvate) in E-toxa-clean (Sigma-Aldrich, Oakville, Ontario, Canada)-washed, endotoxin-free bottle. THP1 cells were counted and 250 μl per well of […] were transferred into a 96 well tissue cultured treated polystyrene microtiterplate (Beckton Dickinson, Franklin Lakes, USA). In addition PMA were added (1.3 nM) and the cells were incubated for three days. After three days the medium were exchanged and Pseudomonas aeruginosa LPS and the peptides were added. The incubation time was four hours and the supernatant was frozen at −20° C. The cells were stained with Tryphan Blue for 2 minutes and washed with PBS two times. The viability of the cells was determined by counting the stained cells over the unstained. The supernatent was used to measure the TNFα production by an ELISA (eBioscience, San Diego, USA) following the manufactures protocol.
LPS from P. aeruginosa strain H103 was highly purified free of proteins and lipids using the Darveau-Hancock method. Briefly, P. aeruginosa was grown overnight in LB broth at 37° C. Cells were collected and washed and the isolated LPS pellets were extracted with a 2:1 chloroform:methanol solution to remove contaminating lipids. Purified LPS samples were quantitated using an assay for the specific sugar 2-keto-3-deoxyoctosonic acid (KDO assay) and then resuspended in endotoxin-free water (Sigma-Aldrich).
Human monocytic cells, THP-1, were obtained from American type culture collection, ATCC® (TIB-202) and were grown in suspension in RPMI-1640 media (Gibco®, Invitrogen™ Life technologies, Burlington, ON), supplemented with 10% (v/v) heat inactivated fetal bovine serum (FBS), 2 mM L-glutamine and 1 mM sodium pyruvate (all from Invitrogen Life Technologies). Cultures were maintained at 37° C. in a humidified 5% (v/v) CO2 incubator up to a maximum of six passages. THP-1 cells at a density of 1×10^6 cells/ml were treated with 0.3 μg/ml phorbol 12-myristate 13-acetate (PMA; Sigma-Aldrich Canada, Oakville ON) for 24 hours, inducing plastic-adherent cells that were further rested in complete RPMI-1640 medium for an additional 24 hours prior to stimulation with various treatments including P. aeruginosa LPS (10 ng/ml) with or without peptides for 24 hours after which supernatants were collected and TNFα assessed by ELISA.
THP-1 cells were stimulated with LPS (10 ng/ml) with or without peptide (10 or 100 μg/ml) for 4 hours as indicated in the results section. Following incubation of the cells under various treatment regimens, the tissue culture supernatants were centrifuged at 1000×g for 5 min, then at 10,000×g for 2 min to obtain cell-free samples. Supernatants were aliquoted and then stored at −20° C. prior to assay for various cytokines. TNFα secretion was detected with a capture ELISA (eBioscience and BioSource International Inc., CA, USA respectively).

[2] = test system: Enterococcus faecalis ATCC29212; assay type: cell-based; details: ATCC29212
Procedure, shortened: (§1)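 Broth microdilution in Mueller Hinton medium; peptides serially diluted at 10× in 0.01% acetic acid with 0.2% BSA, then added to polypropylene plates. Inoculum 2-7×10^5 CFU/ml from overnight culture, incubated overnight at 37° C. MIC = lowest concentration showing no growth.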

[3] = test system: lab isolate of Candida albicans; assay type: cell-based; details: lab isolate of
Procedure, shortened: as §1

[4] = test system: clinical isolate of Staphylococcus epidermidis; assay type: cell-based; details: clinical isolate of
Procedure, shortened: as §1

[5] = test system: wild-type Salmonella enterica ssp. typhimurium; assay type: cell-based
Procedure, shortened: as §1

[6] = test system: Escherichia coli UB1005; assay type: cell-based; details: indolicidin substitution variants (Table 4)
Procedure, shortened: as §1

[7] = test system: Staphylococcus aureus ATCC25923; assay type: cell-based; details: ATCC25923
Procedure, shortened: as §1

[8] = test system: Pseudomonas aeruginosa PAO1 strain H103; assay type: cell-based; details: for MIC P. aerug: PAO1
Procedure, shortened: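 Modified broth microdilution MIC in Mueller Hinton medium, peptides diluted in 0.01% acetic acid/0.2% BSA, polypropylene plates. Inoculum 2-7×10^5 CFU/ml, overnight at 37 °C; MIC is the lowest concentration with no visible growth.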

[9] = test system: Liverpool Epidemic Strains; assay type: cell-based, Pseudomonas aeruginosa
Procedure, shortened: (§2)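 Modified broth microdilution in Mueller Hinton medium, peptides serially diluted in 0.01% acetic acid with 0.2% BSA in polypropylene plates. Inoculum 2-7×10^5 CFU/ml, overnight incubation at 37° C; MIC taken as lowest concentration with no visible growth.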

[10] = test system: multidrug resistant Brazilian clinical isolates of P. aeruginosa; assay type: cell-based, Pseudomonas aeruginosa
Procedure, shortened: as §2

[11] = test system: multidrug resistant Pseudomonas maltophilia ATCC13637; assay type: cell-based
Procedure, shortened: (§3)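 Broth microdilution in Mueller Hinton medium, peptides serially diluted in 0.01% acetic acid with 0.2% BSA in polypropylene plates. Inoculum 2-7×10^5 CFU/ml, incubated overnight at 37° C. MIC is the lowest concentration with no visible growth.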

[12] = test system: ESBL E. coli clinical strain 64771; assay type: cell-based; details: ESBL clinical strain 64771
Procedure, shortened: as §3

[13] = test system: ESBL Klebsiella pneumonia clinical strain 63575; assay type: cell-based
Procedure, shortened: as §3

[14] = test system: MCP-3 release by human PBMC; experiment: Chemokine induction in PBMC (capture ELISA); assay type: cell-based; details: background (6) subtracted
Procedure, shortened: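 Human PBMC from healthy donors (Ficoll-isolated), 7.5×10^5 cells at 0.75–1×10^6 cells/ml, treated with peptides at 20 or 100 μg/ml for 24 h at 37° C, 5% CO2. MCP-3 in cell-free supernatants measured by capture ELISA.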

[15] = test system: CXCL1 (Gro-α) release by human PBMC; experiment: Chemokine induction in PBMC (capture ELISA); assay type: cell-based; details: background (196) subtracted
Procedure, shortened: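 Human PBMC from healthy donors' heparinised blood (Ficoll), 7.5×10^5 cells treated with 20 or 100 μg/ml peptide for 24 h at 37° C, 5% CO2. Cell-free supernatants assayed for CXCL1 by capture ELISA.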

[16] = test system: MCP-1 release by human PBMC; experiment: Chemokine induction in PBMC (capture ELISA); assay type: cell-based; details: background (204) subtracted
Procedure, shortened: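 Heparinized blood from healthy volunteers; Ficoll-isolated human PBMC (7.5×10^5) treated with peptides at 20 or 100 μg/ml for 24 hours at 37° C, 5% CO2. Cell-free supernatants assayed for MCP-1 by capture ELISA.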

[17] = test system: ESBL E. cloacae; assay type: cell-based, Enterobacter cloacae
Procedure, shortened: as §2

[18] = test system: clinical isolates of MRSA; assay type: cell-based, Staphylococcus aureus
Procedure, shortened: as §2

Compound	ability to inhibit TNFα responses compared with indolicidin [1]	MIC E. faecalis [2]	MIC C. albicans [3]	MIC S. epi. [4]	MIC S. typhi [5]	MIC E. coli [6]	MIC S. aureus [7]	MIC P. aerug [8]	also measured
CC[C@H](C)[C@H](N)C(=O)N[C@@H](CC(C)C)C(=O)N1CCC[C@H]1C(=O)N[C@@H](Cc1c[nH]c2ccccc12)C(=O)N[C@@H](CCCCN)C(=O)N[C@@H](Cc1ccccc1)C(=O)N1CCC[C@H]1C(=O)N[C@@H](Cc1c[nH]c2ccccc12)C(=O)N[C@@H](Cc1c[nH]c2ccccc12)C(=O)N1CCC[C@H]1C(=O)N[C@@H](Cc1c[nH]c2ccccc12)C(=O)N[C@@H](CCCNC(=N)N)C(=O)N[C@@H](CCCNC(=N)N)C(N)=O [HH63, ILPWKFPWWPWRR] (H-ILPWKFPWWPWRR-NH2; N-terminus assumed)	slightly better or equivalent than indolicidin	31 µg/mL (≈ 16.6 µM)	16 µg/mL (≈ 8.57 µM)	4 µg/mL (≈ 2.14 µM)	31 µg/mL (≈ 16.6 µM)	16 µg/mL (≈ 8.57 µM)	8 µg/mL (≈ 4.28 µM)	62 µg/mL (≈ 33.2 µM)	
CC[C@H](C)[C@H](N)C(=O)N[C@@H](CC(C)C)C(=O)N[C@@H](CCCCN)C(=O)N[C@@H](Cc1c[nH]c2ccccc12)C(=O)N[C@@H](CCCCN)C(=O)N[C@@H](Cc1c[nH]c2ccccc12)C(=O)N1CCC[C@H]1C(=O)N[C@@H](Cc1c[nH]c2ccccc12)C(=O)N[C@@H](Cc1c[nH]c2ccccc12)C(=O)N1CCC[C@H]1C(=O)N[C@@H](Cc1c[nH]c2ccccc12)C(=O)N[C@@H](CCCNC(=N)N)C(=O)N[C@@H](CCCNC(=N)N)C(N)=O [HH111, ILKWKWPWWPWRR]	slightly better or equivalent than indolicidin	31 µg/mL (≈ 16 µM)	8 µg/mL (≈ 4.13 µM)	4 µg/mL (≈ 2.06 µM)	31 µg/mL (≈ 16 µM)	8 µg/mL (≈ 4.13 µM)	8 µg/mL (≈ 4.13 µM)	16 µg/mL (≈ 8.26 µM)	
CC[C@H](C)[C@H](N)C(=O)N[C@@H](CC(C)C)C(=O)N1CCC[C@H]1C(=O)N[C@@H](Cc1c[nH]c2ccccc12)C(=O)N[C@@H](CCCCN)C(=O)N[C@@H](Cc1c[nH]c2ccccc12)C(=O)N1CCC[C@H]1C(=O)N[C@@H](Cc1c[nH]c2ccccc12)C(=O)N[C@@H](Cc1c[nH]c2ccccc12)C(=O)N[C@@H](CCCCN)C(=O)N[C@@H](Cc1c[nH]c2ccccc12)C(=O)N[C@@H](CCCNC(=N)N)C(=O)N[C@@H](CCCNC(=N)N)C(N)=O [HH117, ILPWKWPWWKWRR] (H-ILPWKWPWWKWRR-NH2; N-terminus assumed)	slightly better or equivalent than indolicidin	31 µg/mL (≈ 16 µM)	16 µg/mL (≈ 8.26 µM)	2 µg/mL (≈ 1.03 µM)	31 µg/mL (≈ 16 µM)	8 µg/mL (≈ 4.13 µM)	8 µg/mL (≈ 4.13 µM)	16 µg/mL (≈ 8.26 µM)	
CC[C@H](C)[C@H](NC(=O)[C@H](CCCCN)NC(=O)[C@H](CC(C)C)NC(=O)[C@@H](NC(=O)[C@@H](N)C(C)C)C(C)C)C(=O)N[C@H](C(=O)N[C@@H](CCCNC(=N)N)C(=O)N[C@@H](CCCNC(=N)N)C(=O)N[C@@H](Cc1ccccc1)C(N)=O)C(C)C [HHC148, VVLKIVRRF] (H-VVLKIVRRF-NH2; N-terminus assumed)									MIC [9]: 241 µM (≈ 272 µg/mL); MIC [10]: >241 µM; MIC [11]: 60 µM (≈ 67.7 µg/mL); MIC [12]: 241 µM (≈ 272 µg/mL); MIC [13]: >241 µM; Chemokine induction MCP-3 ([14]; 20 μg/ml peptide): 1 pg/mL; Chemokine induction MCP-3 ([14]; 100 μg/ml peptide): 3 pg/mL; Chemokine induction Gro-α ([15]; 20 μg/ml peptide): 55 pg/mL; Chemokine induction Gro-α ([15]; 100 μg/ml peptide): 60 pg/mL; MIC [2]: 241 µM (≈ 272 µg/mL); MIC [7]: 241 µM (≈ 272 µg/mL); Chemokine induction MCP-1 ([16]; 20 μg/ml peptide): 25 pg/mL; Chemokine induction MCP-1 ([16]; 100 μg/ml peptide): 210 pg/mL; MIC [17]: 241 µM (≈ 272 µg/mL); antimicrobial activity against P. aeruginosa PAO1 (in words) ([8]; laboratory strain P. aeruginosa PAO1): did not return any generally active substances; MIC [18]: 241 µM (≈ 272 µg/mL)
HH1010: peptide derived from indolicidin; sequence not in the text shown (ILRWKWRWWRWRR-NH2)	slightly better or equivalent than indolicidin								
HH1011: peptide derived from indolicidin; sequence not in the text shown (RWRWWRWRR-NH2)	slightly better or equivalent than indolicidin								
LL-37 [reference compound]									suppression of LPS-induced TNFα ([1]; P. aeruginosa LPS 10 ng/ml (FIG. 12)): strongly suppressed
